Measurements taken from patent US6632794B1, “Insulin-like growth factor agonist molecules” (Genentech, Inc., priority 1997, dated 2003).
Like-named read-outs stand apart in the source and are kept apart here. Starred links: 1 amine or outer side, 2 acyl side, 3 side chain; linkers in the order of their positions; H or OH if unused. Positions of bridges follow the written chain, without caps; N, C: chain ends. Residues, ends and D or L forms follow the SMILES beside them. No end group written: not given here. Suc = O=C(CCC(=O)[*:2])[*:1]

Target: IGFBP-3 (Homo sapiens, UniProt P17936)
Sequence (P17936 28-291): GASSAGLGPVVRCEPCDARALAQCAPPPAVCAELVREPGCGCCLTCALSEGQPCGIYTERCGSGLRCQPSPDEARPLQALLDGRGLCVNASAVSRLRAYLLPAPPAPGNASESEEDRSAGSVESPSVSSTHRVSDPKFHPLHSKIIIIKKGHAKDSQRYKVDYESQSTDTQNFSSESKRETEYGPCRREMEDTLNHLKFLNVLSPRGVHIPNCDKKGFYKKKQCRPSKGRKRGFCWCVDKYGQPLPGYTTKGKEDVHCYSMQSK
Test: BIAcore competition assay, IGFBP-3 binding to immobilized IGF-I
Settings: for IGF-I Inhibition IC50 (mut)/IC50 (wt): bp3-01-ox variants by BIAcore, wt = bp3-01-ox
Method: A. BIAcore™ Competition Assay (for IGFBP-3 Binders)
IGF-I was immobilized on a dextran chip for inhibition assays using a BIAcore™ 2000 surface-plasmon-resonance device (BIAcore, Inc., Piscataway, N.J.) to measure free binding protein. […] Serial dilutions of peptide were mixed with a constant concentration (40 nM) of IGFBP-3. After incubation for >1 hour at room temperature, an aliquot of 20 μL was injected at a flow rate of 20 μL/min over the IGF-I chip. Following the injection, a response reading was taken to measure the relative amount of IGFBP-3 bound to the IGF-I.

[1] = 40 nM IGFBP-3, 400 to 800 RU immobilized IGF-I, read-out: BIAcore Assay IC50, inhibition of IGF-I binding to IGFBP-3
[2] = bp3-01-ox variants by BIAcore competition assay, read-out: IGF-I Inhibition IC50

## CC[C@H](C)[C@@H]1NC(=O)[C@@H](NC(=O)[C@@H](NC(=O)[C@H](Cc2c[nH]c3ccccc23)NC(=O)CNC(=O)[C@H](CC(=O)O)NC(=O)[C@H](CC(C)C)NC(=O)[C@@H](N)CCC(=O)O)C(C)C)CSSC[C@@H](C(=O)N[C@@H](Cc2ccc(O)cc2)C(=O)N[C@@H](CC(C)C)C(=O)N[C@@H](C)C(=O)N[C@@H](CCC(=O)O)C(=O)NCC(N)=O)NC(=O)[C@H](CC(C)C)NC(=O)[C@H](CC(N)=O)NC(=O)[C@H](CCC(N)=O)NC(=O)[C@H](CCC(=O)O)NC(=O)CNC(=O)[C@H](C(C)C)NC(=O)[C@H](CCCCN)NC1=O [BP3-23] (H-ELDGWVCIKVGEQNLCYLAEG-NH2; disulfide 7-16; N-terminus assumed)
[1]
  IC50: 220 µM

## CC[C@H](C)[C@@H]1NC(=O)[C@H](C(C)C)NC(=O)[C@H](Cc2ccc(O)cc2)NC(=O)CNC(=O)[C@@H]2CCCN2C(=O)CNC(=O)[C@H](CCC(=O)O)NC(=O)[C@H](Cc2ccccc2)NC(=O)[C@@H](NC(=O)[C@H](CCC(=O)O)NC(=O)[C@H](CO)NC(=O)[C@H](CCC(=O)O)NC(=O)[C@@H](N)CCC(=O)O)CSSC[C@@H](C(=O)NCC(=O)N[C@@H](CC(C)C)C(=O)N[C@H](C(=O)NCC(=O)O)C(C)C)NC1=O [BP3-4B3.3] (H-EESECFEGPGYVICGLVG-OH; disulfide 5-14; N-terminus and C-terminus assumed)
[1]
  IC50: 80 µM

## CC(C)C[C@H](NC(=O)[C@@H](NC(=O)[C@H](Cc1ccc(O)cc1)NC(=O)[C@@H]1CSSC[C@H](NC(=O)[C@@H](NC(=O)[C@@H](NC(=O)[C@H](CCCCN)NC(=O)[C@H](Cc2ccccc2)NC(=O)[C@@H](N)Cc2c[nH]c3ccccc23)[C@@H](C)O)C(C)C)C(=O)N[C@@H](Cc2ccc(O)cc2)C(=O)N[C@@H](CCC(=O)O)C(=O)N[C@@H](Cc2c[nH]c3ccccc23)C(=O)N[C@@H](CCC(=O)O)C(=O)N[C@@H](CC(=O)O)C(=O)N[C@@H](CCC(=O)O)C(=O)N[C@@H](C(C)C)C(=O)N[C@@H](CCC(N)=O)C(=O)N1)[C@@H](C)O)C(=O)N[C@@H](CCC(=O)O)C(=O)N[C@@H](CCC(=O)O)C(=O)NCC(N)=O [BP3-24] (H-WFKTVCYEWEDEVQCYTLEEG-NH2; disulfide 6-15)
[1]
  IC50: 100 to 300 µM

## CC(C)C[C@@H]1NC(=O)[C@H](Cc2ccc(O)cc2)NC(=O)[C@H](Cc2c[nH]c3ccccc23)NC(=O)[C@H](CCC(=O)O)NC(=O)[C@H](C)NC(=O)[C@H](C(C)C)NC(=O)[C@@H]2CCCN2C(=O)[C@H](Cc2c[nH]c3ccccc23)NC(=O)[C@@H](NC(=O)[C@@H](NC(=O)[C@@H](N)CCC(=O)O)C(C)C)CSSC[C@@H](C(=O)N[C@@H](CC(N)=O)C(=O)O)NC1=O [bp3-27] (H-EVCWPVAEWYLCN-OH; disulfide 3-12; N-terminus and C-terminus assumed)
[2]
  IC50: 2.8 µM
  IGF-I Inhibition IC50 (mut)/IC50 (wt): 1.4

## CC(C)C[C@@H]1NC(=O)[C@H](Cc2ccc(O)cc2)NC(=O)[C@H](Cc2c[nH]c3ccccc23)NC(=O)[C@H](CCC(=O)O)NC(=O)[C@H](C)NC(=O)[C@H](C(C)C)NC(=O)[C@@H]2CCCN2C(=O)[C@H](Cc2c[nH]c3ccccc23)NC(=O)[C@@H](NC(=O)[C@@H](NC(=O)[C@H](CCC(=O)O)NC(=O)[C@@H]2CCCN2C(=O)CN)[C@@H](C)O)CSSC[C@@H](C(=O)N[C@@H](CC(N)=O)C(=O)O)NC1=O [bp3-41] (H-GPETCWPVAEWYLCN-OH; disulfide 5-14; N-terminus and C-terminus assumed)
[2]
  IC50: 4 µM
  IGF-I Inhibition IC50 (mut)/IC50 (wt): 2.0

## CC[C@H](C)[C@@H]1NC(=O)[C@H](Cc2ccc(O)cc2)NC(=O)CNC(=O)[C@H](CCC(N)=O)NC(=O)[C@H](CC(=O)O)NC(=O)[C@H](Cc2c[nH]cn2)NC(=O)[C@H](CCCNC(=N)N)NC(=O)[C@H](CC(=O)O)NC(=O)[C@H](Cc2c[nH]c3ccccc23)NC(=O)[C@@H](N)CSSC[C@@H](C(=O)N[C@H](C(=O)N[C@H](C(=O)N[C@@H](CC(=O)O)C(=O)N[C@@H](CO)C(=O)O)[C@@H](C)O)[C@@H](C)O)NC1=O [BP13] (H-CWDRHDQGYICTTDS-OH; disulfide 1-11)
[1]
  IC50: > 1000 µM

## CSCC[C@@H]1NC(=O)[C@H](Cc2ccc(O)cc2)NC(=O)[C@@H]2CSSC[C@H](NC(=O)[C@H](CC(C)C)NC(=O)[C@@H]3CCCN3C1=O)C(=O)N[C@@H](CC(C)C)C(=O)N[C@H](C(=O)N[C@@H](Cc1ccc(O)cc1)C(=O)N[C@@H](CC(=O)O)C(=O)N[C@@H](CO)C(=O)N[C@@H](CC(=O)O)C(=O)O)CSSC[C@H](NC(=O)[C@H](CC(N)=O)NC(=O)[C@H](C)NC(=O)[C@@H](NC(=O)[C@@H](N)[C@@H](C)O)C(C)C)C(=O)N[C@@H](CC(=O)O)C(=O)N2 [BP08, TVANCDC*YMPLC*LCYDSD] (H-TVANCDCYMPLCLCYDSD-OH; disulfide 5-14, 7-12; N-terminus and C-terminus assumed)
  IC50: 15 µM

## CC(C)C[C@@H]1NC(=O)[C@H](Cc2ccc(O)cc2)NC(=O)[C@H](Cc2c[nH]c3ccccc23)NC(=O)[C@H](CCC(=O)O)NC(=O)[C@H](C)NC(=O)[C@H](C(C)C)NC(=O)[C@@H]2CCCN2C(=O)[C@H](Cc2c[nH]c3ccccc23)NC(=O)[C@@H](NC(=O)[C@@H](NC(=O)[C@H](CCC(=O)O)NC(=O)[C@H](CCC(=O)O)NC(=O)[C@H](CO)NC(=O)[C@H](C)N)C(C)C)CSSC[C@@H](C(=O)N[C@@H](CC(N)=O)C(=O)O)NC1=O [bp3-30] (H-ASEEVCWPVAEWYLCN-OH; disulfide 6-15; N-terminus and C-terminus assumed)
[2]
  IC50: 5.6 µM
  IGF-I Inhibition IC50 (mut)/IC50 (wt): 2.8

## CSCC[C@H](NC(=O)[C@@H]1CSSC[C@H](NC(=O)[C@H](CC(=O)O)NC(=O)[C@@H](NC(=O)CNC(=O)[C@@H](N)[C@@H](C)O)C(C)C)C(=O)N[C@@H](CCC(N)=O)C(=O)N[C@H]2CSSC[C@H](NC(=O)[C@H](Cc3c[nH]cn3)NC(=O)[C@H](C(C)C)NC(=O)[C@@H]3CCCN3C(=O)CNC2=O)C(=O)N[C@@H](C(C)C)C(=O)N1)C(=O)N[C@@H](CC(=O)O)C(=O)N[C@@H](Cc1c[nH]c2ccccc12)C(=O)N[C@@H](C)C(=O)O [BP06, TGVDCQC*GPVHC*VCMDWA] (H-TGVDCQCGPVHCVCMDWA-OH; disulfide 5-14, 7-12; N-terminus and C-terminus assumed)
  IC50: 5 µM

## WPVAEWYLCN [bp3-24]
[2]
  IC50: > 1000 µM

## CC(=O)N[C@@H](CO)C(=O)N[C@@H](CCC(=O)O)C(=O)N[C@@H](CCC(=O)O)C(=O)N[C@H](C(=O)N[C@H]1CSSC[C@@H](C(=O)N[C@@H](CC(N)=O)C(N)=O)NC(=O)[C@H](CC(C)C)NC(=O)[C@H](Cc2ccc(O)cc2)NC(=O)[C@H](Cc2c[nH]c3ccccc23)NC(=O)[C@H](CCC(=O)O)NC(=O)[C@H](C)NC(=O)[C@H](C(C)C)NC(=O)[C@@H]2CCCN2C(=O)[C@H](Cc2c[nH]c3ccccc23)NC1=O)C(C)C [bp3-40] (Ac-SEEVCWPVAEWYLCN-NH2; disulfide 5-14 (inferred))
[2]
  IC50: 0.66 µM
  IGF-I Inhibition IC50 (mut)/IC50 (wt): 0.33

## CC(C)C[C@@H]1NC(=O)[C@H](Cc2ccc(O)cc2)NC(=O)[C@H](Cc2c[nH]c3ccccc23)NC(=O)[C@H](CCC(=O)O)NC(=O)[C@H](C)NC(=O)[C@H](C(C)C)NC(=O)[C@@H]2CCCN2C(=O)[C@H](Cc2c[nH]c3ccccc23)NC(=O)[C@@H](NC(=O)[C@@H](NC(=O)[C@H](CCC(=O)O)NC(=O)[C@@H](N)CCC(=O)O)C(C)C)CSSC[C@@H](C(=O)N[C@@H](CC(N)=O)C(=O)O)NC1=O [bp3-28] (H-EEVCWPVAEWYLCN-OH; disulfide 4-13 (inferred); N-terminus and C-terminus assumed)
[2]
  IC50: 5.4 µM
  IGF-I Inhibition IC50 (mut)/IC50 (wt): 2.7

## CC[C@H](C)[C@H](NC(=O)[C@H](Cc1ccc(O)cc1)NC(=O)[C@H](C)NC(=O)CNC(=O)[C@@H](NC(=O)[C@@H](N)CCCNC(=N)N)C(C)C)C(=O)N[C@@H](CO)C(=O)N[C@H]1CSSC[C@@H](C(=O)N[C@@H](Cc2c[nH]c3ccccc23)C(=O)N[C@H](C(=O)N[C@@H](CCC(=O)O)C(=O)N[C@@H](CC(=O)O)C(=O)N[C@@H](CC(C)C)C(=O)N[C@@H](CC(C)C)C(=O)N[C@@H](CC(=O)O)C(=O)NCC(N)=O)C(C)C)NC(=O)[C@H](CCC(=O)O)NC(=O)[C@H]([C@@H](C)O)NC(=O)[C@H](CCC(=O)O)NC(=O)[C@H](CO)NC1=O [BP3-25] (H-RVGAYISCSETECWVEDLLDG-NH2; disulfide 8-13)
[1]
  IC50: > 1000 µM

## CC(C)C[C@@H]1NC(=O)[C@H](Cc2ccc(O)cc2)NC(=O)[C@H](Cc2c[nH]c3ccccc23)NC(=O)[C@H](CCC(=O)O)NC(=O)[C@H](C)NC(=O)[C@H](C(C)C)NC(=O)[C@@H]2CCCN2C(=O)[C@H](Cc2c[nH]c3ccccc23)NC(=O)[C@@H](NC(=O)[C@@H](NC(=O)[C@H](CCC(=O)O)NC(=O)[C@H](CCC(=O)O)NC(=O)[C@@H](N)CO)C(C)C)CSSC[C@@H](C(=O)N[C@@H](CC(N)=O)C(N)=O)NC1=O [bp3-39] (H-SEEVCWPVAEWYLCN-NH2; disulfide 5-14 (inferred); N-terminus assumed)
[2]
  IC50: 0.66 µM
  IGF-I Inhibition IC50 (mut)/IC50 (wt): 0.33

## CC[C@H](C)[C@H](NC(=O)CCC(=O)O)C(=O)N1CCC[C@H]1C(=O)N[C@H](C(=O)N[C@@H](CO)C(=O)N1CCC[C@H]1C(=O)N[C@@H](CC(=O)O)C(=O)N[C@@H](Cc1c[nH]c2ccccc12)C(=O)N[C@@H](Cc1ccccc1)C(=O)N[C@H](C(=O)N[C@@H](CS)C(=O)N[C@@H](CCC(N)=O)C(N)=O)C(C)C)C(C)C [bp3-108] (Suc-IPVSPDWFVCQ-NH2)
BIAcore competition, read-out: IC50, inhibition of IGFBP-3 binding to IGF-I
  IC50: 20 µM
